In US4929601A, “Tripeptides useful as immunostimulants as well as in the prevention of metastases” (Ellem Industria Farmaceutica, S.p.A., priority 1987, dated 1990):

Tests used:
[1] = system: B16-BL6 murine melanoma cells; experiment: Antimetastatic activity: pulmonary colonization by melanoma cells inoculated in mice; type: in vivo, female C57BL/6 mice
Source text: The capacity of the tripeptide […] of inhibiting the pulmonary colonization by B16-BL6 murine melanoma cells inoculated in female C57BL/6 mice having an average body weight of 20 g (10 animals per group) has been evaluated. […] Fourteen days later, the animals have been sacrificed, the lungs have been withdrawn and examined after formalin fixation for the presence of surface melanoma colonies. A group of control animals has only been treated with the tumour cell suspension.

[2] = system: PHA-stimulated human T lymphocytes; experiment: RNA synthesis in PHA-stimulated human T lymphocytes in vitro (3H-uridine); type: cell-based; conditions: for RNA synthesis, 3H-uridine c.p.m. (mean): control 3835
Description: Human T lymphocytes, incubated in vitro for 24 hours in presence of 0.5% phytohemagglutinin (PHA) and different concentrations of the tripeptides under examination, have been analyzed for RNA synthesis (cell activation) by means of 3H-uridine labelling.

[3] = system: Human T lymphocytes; experiment: Effect on cell cycle (propidium iodide, flow cytometer); type: cell-based; conditions: 1 μg/ml, 72 hours with PHA
Description: Human T lymphocytes have been incubated for 72 hours in presence of PHA and the tripeptides under examination (1 μg/ml). DNA has then been stained with propidium iodide and cells have been analyzed with a flow cytometer.

[4] = system: Human T lymphocytes; experiment: Stimulation of lymphokine production in vitro: TCGF (IL-2) activity of supernatants; type: cell-based
Description: Human T lymphocytes have been incubated with PHA and with or without the peptides under examination for 24 hours (in the case of IL-2) or 72 hours (in the case of BCGF).
(§1) The supernatants have been collected, filtered (0.2 μm) and assayed for the presence of IL-2 or BCGF activity, by adding them at different concentrations to fresh T lymphocytes or to long term cultured B cells. The proliferating activity of these cells, dependent on the presence of the respective growth factor, has been evaluated through 3H-thymidine incorporation.

[5] = system: pure human T lymphocytes, without macrophages; experiment: Lymphokine production by pure human T lymphocytes without macrophages (+IL-1): BCGF activity; type: cell-based
Source text: as §1
(§2) The lymphokine production by human T lymphocytes purified through […] on nylon wool column has been evaluated with the same methods as in the previous experiment.
(§3) In order to obviate the lack of macrophages, recombinant IL-1 β (Genzyme) has been added at the concentration of 25 Units/ml.

[6] = system: pure human T lymphocytes, without macrophages; experiment: Lymphokine production by pure human T lymphocytes without macrophages (+IL-1): TCGF activity; type: cell-based
Source text: as §1, §2, §3

[7] = Toxicological trials: LD50 in mice; conditions: mouse, in vivo, ip; i.p. in mice
[8] = 1 mcg/ml, 3.125% of supernatant
[9] = 10 mcg/ml, 3.125% of supernatant
[10] = 10 mcg/ml, 6.25% of supernatant
[11] = 10 mcg/ml, 12.5% of supernatant

For `N=C(N)NCCC[C@H](N)C(=O)NCC(=O)N[C@@H](CC(=O)O)C(=O)O` [ARG--GLY--ASP, L-Arginyl-glycyl-L-aspartic acid], the “mean number of metastases” value ([1]; 3 mg/mouse i.v. together with 2×10^5 melanoma cells, lungs after 14 days, controls above 500/mouse) was 173 /mouse, the “change of mean number of metastases vs controls” value ([1]; 3 mg/mouse i.v., 7×10^4 tumour cells) was -69% and the “mean number of metastases” value ([1]; 3 mg/mouse i.v., 7×10^4 tumour cells, controls 21.6) was 6.8. For the same compound, the “PHA-induced human T lymphocyte activation (RNA synthesis)” value ([2]; 24 hours, 0.5% PHA) was “able to increase”, the “RNA synthesis Δ %” value ([2]; peptide 0.0001 mcg/ml) was -3% and the “RNA synthesis, 3H-uridine c.p.m. (mean)” value ([2]; peptide 0.0001 mcg/ml, 24 hours, 0.5% PHA) was 3703 c.p.m. The “RNA synthesis Δ %” value ([2]; peptide 0.001 mcg/ml) was -2%, the “RNA synthesis, 3H-uridine c.p.m. (mean)” value ([2]; peptide 0.001 mcg/ml, 24 hours, 0.5% PHA) was 3741 c.p.m and the “RNA synthesis Δ %” value ([2]; peptide 0.01 mcg/ml) was “+11%”. For the same compound, the “RNA synthesis, 3H-uridine c.p.m. (mean)” value ([2]; peptide 0.01 mcg/ml, 24 hours, 0.5% PHA) was 4259 c.p.m, the “RNA synthesis Δ %” value ([2]; peptide 0.1 mcg/ml) was “+18%” and the “RNA synthesis, 3H-uridine c.p.m. (mean)” value ([2]; peptide 0.1 mcg/ml, 24 hours, 0.5% PHA) was 4516 c.p.m. For the same compound, the “RNA synthesis Δ %” value ([2]; peptide 1 mcg/ml) was “+6%”, the “RNA synthesis, 3H-uridine c.p.m. (mean)” value ([2]; peptide 1 mcg/ml, 24 hours, 0.5% PHA) was 4068 c.p.m and the “RNA synthesis Δ %” value ([2]; peptide 10 mcg/ml) was “+9%”. The “RNA synthesis, 3H-uridine c.p.m. (mean)” value ([2]; peptide 10 mcg/ml, 24 hours, 0.5% PHA) was 4199 c.p.m, the “G2 + M % cells, difference from T + PHA” value [3] was “+6.12” and the “Go-Gl % cells, difference from T + PHA” value [3] was -5.67. The “S % cells, difference from T + PHA” value [3] was -1.15, the “CELL PHASES G2 + M % CELLS” value ([3]; T + PHA 6.02) was 12.14% and the “CELL PHASES S % CELLS” value ([3]; T + PHA 30.61) was 29.46%. The “CELL PHASES Go-Gl % CELLS” value ([3]; T + PHA 63.36) was 57.69%, the “TCGF activity Δ %” value ([4]; 3.125% of supernatant) was “+107%” and the “TCGF ACTIVITY (mean)” value ([4]; 3.125% of supernatant, T + PHA 1564) was 3245 COUNTS PER MINUTE. For the same compound, the “TCGF activity Δ %” value ([4]; 6.25% of supernatant) was “+224%”, the “TCGF ACTIVITY (mean)” value ([4]; 6.25% of supernatant, T + PHA 2622) was 8496 COUNTS PER MINUTE and the “TCGF activity Δ %” value ([4]; 12.5% of supernatant) was “+227%”. For the same compound, the “TCGF ACTIVITY (mean)” value ([4]; 12.5% of supernatant, T + PHA 4012) was 13113 COUNTS PER MINUTE, the “TCGF activity Δ %” value ([4]; 25% of supernatant) was “+105%” and the “TCGF ACTIVITY (mean)” value ([4]; 25% of supernatant, T + PHA 7824) was 16609 COUNTS PER MINUTE. For the same compound, the “TCGF activity Δ %” value ([4]; 50% of supernatant) was “+29%”, the “TCGF ACTIVITY (mean)” value ([4]; 50% of supernatant, T + PHA 14086) was 18167 COUNTS PER MINUTE and the “BCGF activity Δ %” value [5, 8] was “+94%”. For the same compound, the “BCGF ACTIVITY c.p.m.” value ([5]; 1 mcg/ml, 3.125% of supernatant, T + PHA + IL-1 318) was 618 c.p.m, the “BCGF activity Δ %” value ([5]; 1 mcg/ml, 6.25% of supernatant) was “+9%” and the “BCGF ACTIVITY c.p.m.” value ([5]; 1 mcg/ml, 6.25% of supernatant, T + PHA + IL-1 582) was 634 c.p.m. For the same compound, the “BCGF activity Δ %” value ([5]; 1 mcg/ml, 12.5% of supernatant) was “+141%”, the “BCGF ACTIVITY c.p.m.” value ([5]; 1 mcg/ml, 12.5% of supernatant, T + PHA + IL-1 1104) was 2663 c.p.m and the “BCGF activity Δ %” value ([5]; 1 mcg/ml, 25% of supernatant) was “+106%”. For the same compound, the “BCGF ACTIVITY c.p.m.” value ([5]; 1 mcg/ml, 25% of supernatant, T + PHA + IL-1 2507) was 5172 c.p.m, the “BCGF activity Δ %” value ([5]; 1 mcg/ml, 50% of supernatant) was “+95%” and the “BCGF ACTIVITY c.p.m.” value ([5]; 1 mcg/ml, 50% of supernatant, T + PHA + IL-1 5056) was 9837 c.p.m. The “BCGF activity Δ %” value [5, 9] was “+147%”, the “BCGF ACTIVITY c.p.m.” value ([5]; 10 mcg/ml, 3.125% of supernatant, T + PHA + IL-1 318) was 784 c.p.m and the “BCGF activity Δ %” value [5, 10] was “+49%”. For the same compound, the “BCGF ACTIVITY c.p.m.” value ([5]; 10 mcg/ml, 6.25% of supernatant, T + PHA + IL-1 582) was 866 c.p.m, the “BCGF activity Δ %” value [5, 11] was “+171%” and the “BCGF ACTIVITY c.p.m.” value ([5]; 10 mcg/ml, 12.5% of supernatant, T + PHA + IL-1 1104) was 2997 c.p.m. The “BCGF activity Δ %” value ([5]; 10 mcg/ml, 25% of supernatant) was “+173%”, the “BCGF ACTIVITY c.p.m.” value ([5]; 10 mcg/ml, 25% of supernatant, T + PHA + IL-1 2507) was 6849 c.p.m and the “BCGF activity Δ %” value ([5]; 10 mcg/ml, 50% of supernatant) was “+125%”. For the same compound, the “BCGF ACTIVITY c.p.m.” value ([5]; 10 mcg/ml, 50% of supernatant, T + PHA + IL-1 5056) was 11364 c.p.m, the “effect on lymphokine production by pure T lymphocytes” value ([5]; both for IL-2 and BCGF, IL-1 β 25 Units/ml) was “comparable with that of the other reference compounds” and the “TCGF activity Δ %” value [6, 8] was “+17%”. The “TCGF ACTIVITY c.p.m.” value ([6]; 1 mcg/ml, 3.125% of supernatant, T + PHA + IL-1 1696) was 1984 c.p.m, the “TCGF activity Δ %” value ([6]; 1 mcg/ml, 6.25% of supernatant) was “+145%” and the “TCGF ACTIVITY c.p.m.” value ([6]; 1 mcg/ml, 6.25% of supernatant, T + PHA + IL-1 2817) was 6893 c.p.m. The “TCGF activity Δ %” value ([6]; 1 mcg/ml, 12.5% of supernatant) was “+259%”, the “TCGF ACTIVITY c.p.m.” value ([6]; 1 mcg/ml, 12.5% of supernatant, T + PHA + IL-1 3663) was 13147 c.p.m and the “TCGF activity Δ %” value ([6]; 1 mcg/ml, 25% of supernatant) was “+209%”. For the same compound, the “TCGF ACTIVITY c.p.m.” value ([6]; 1 mcg/ml, 25% of supernatant, T + PHA + IL-1 4812) was 14862 c.p.m, the “TCGF activity Δ %” value ([6]; 1 mcg/ml, 50% of supernatant) was “+149%” and the “TCGF ACTIVITY c.p.m.” value ([6]; 1 mcg/ml, 50% of supernatant, T + PHA + IL-1 6297) was 15654 c.p.m. The “TCGF activity Δ %” value [6, 9] was “+2%”, the “TCGF ACTIVITY c.p.m.” value ([6]; 10 mcg/ml, 3.125% of supernatant, T + PHA + IL-1 1696) was 1736 c.p.m and the “TCGF activity Δ %” value [6, 10] was “+125%”. For the same compound, the “TCGF ACTIVITY c.p.m.” value ([6]; 10 mcg/ml, 6.25% of supernatant, T + PHA + IL-1 2817) was 6342 c.p.m, the “TCGF activity Δ %” value [6, 11] was “+279%” and the “TCGF ACTIVITY c.p.m.” value ([6]; 10 mcg/ml, 12.5% of supernatant, T + PHA + IL-1 3663) was 13874 c.p.m. For the same compound, the “TCGF activity Δ %” value ([6]; 10 mcg/ml, 25% of supernatant) was “+128%”, the “TCGF ACTIVITY c.p.m.” value ([6]; 10 mcg/ml, 25% of supernatant, T + PHA + IL-1 4812) was 10968 c.p.m and the “TCGF activity Δ %” value ([6]; 10 mcg/ml, 50% of supernatant) was “+113%”. The “TCGF ACTIVITY c.p.m.” value ([6]; 10 mcg/ml, 50% of supernatant, T + PHA + IL-1 6297) was 13427 c.p.m and the LD50 [7] was > 1000 mg/kg.
